Read-outs that look alike come from different tables or passages of the source.
What was measured:
[1] = test system: catechol dioxygenase (CatA); assay: Substrate specificity of catechol dioxygenase in cell extract; type: biochemical, Amycolatopsis species ATCC 39116; conditions: for Specific activity: 20 μM substrate, MA formation at 260 nm
Protocol: The cells were harvested by centrifugation, washed in 60 mM Tris-HCl buffer (pH 8.2), and disrupted in pre-packed lysis tubes (0.1 mm silica spheres, Lysing Matrix B, MP Biomedicals, Heidelberg, Germany), using three intervals of disruption in a ribolyzer (Precellys-24, Peq Lab, Hannover, Germany, 3×30 s, 6 m s^−1) with […] on ice in between. Removal of cell debris and protein quantification was performed as previously described (Becker et al., 2009. Appl. Environ. Microbiol. 75, 7866-9). […] The reaction was monitored on-line via the change in absorbance at 260 nm, reflecting the accumulation of MA (c=16,800 M^−1 cm^−1) (Jimenez et al., 2014. Microbiol. 16, 1767-78). […] Controls without cell extract and without substrate were included.
Subsequently, GC-MS analysis of pure MA and of lyophilized culture supernatant from a culture on o-cresol was conducted. […] It was now interesting to see, how this product was actually derived.

[2] = test system: Corynebacterium glutamicum LIMA-1; type: cell-based; conditions: glucose as growth substrate; 24 hours
Protocol: C. glutamicum was grown at 1 mL-scale in a micro bioreactor (BioLector I, m2plabs, Baesweiler, Germany), using 48-well flower plates. […] All cultures were conducted as biological triplicate.
A set of growth experiments was conducted to study potential inhibitory effects of the compounds involved on growth of the producing strains.

[3] = biological target: catechol-1,2-dioxygenase (CatA) (Corynebacterium glutamicum, UniProt Q8NN11); assay: Catechol-1,2-dioxygenase (CatA) activity and kinetics in crude cell extracts; type: biochemical
catechol-1,2-dioxygenase (CatA), sequence (Q8NN11 entry or part of it): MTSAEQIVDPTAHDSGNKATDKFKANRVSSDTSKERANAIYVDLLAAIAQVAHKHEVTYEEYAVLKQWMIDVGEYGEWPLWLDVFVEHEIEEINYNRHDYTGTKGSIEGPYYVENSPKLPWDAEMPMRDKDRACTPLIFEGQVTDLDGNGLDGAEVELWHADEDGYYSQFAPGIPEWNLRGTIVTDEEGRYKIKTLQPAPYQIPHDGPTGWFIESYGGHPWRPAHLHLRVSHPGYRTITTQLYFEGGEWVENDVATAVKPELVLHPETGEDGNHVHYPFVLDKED
Protocol: Crude cell extracts were prepared from exponentially growing cells by mechanical cell disruption. Cell harvest was carried out as previously described (Buschke et al., 2011. Biotechnol. J. 6, 306-17). Aliquots of 1 mL cell suspension were transferred into FastPrep-24 vials (MP Biomedicals, Illkirch-Graffenstaden, France), containing silica beads (Ø 0.1 mm). Cell disruption was carried out in 2×30 sec cycles at 5,000 rpm (Precellys-24, Peqlab, Hannover, Germany), including a 5 minute cooling pause on ice. The extract was also chilled on ice after the disruption. Removal of cell debris and protein quantification was performed as previously described (Becker et al., 2009. Appl. Environ. Microbiol. 75, 7866-9). […] The formation of MA (c=[…]) was monitored via the change in absorbance at 260 nm (Guzik et al., 2013. Int. J. Gen. Mol. Microbiol. 103, 1297-1307). […] The kinetic parameters of the enzyme were obtained by fitting the experimental data to the Michaelis-Menten type kinetic equation (OriginLab, Northhampton, Mass., USA). The protein content in the crude cell extract was quantified, using bovine serum albumin as standard (Pierce BCA Protein Assay Kit, Thermo Fisher Scientific).

[4] = test system: Corynebacterium glutamicum LIMA-1; assay: Kinetics and stoichiometry of MA production from aromatics, batch shake flask, LIMA-1; type: cell-based
Protocol: (§1) C. glutamicum was grown in baffled shake flasks with 10% filling volume at 30° C. and 230 rpm on an orbital shaker (Multitron, Infors AG, Bottmingen, Switzerland, 5 cm shaking diameter). The cultivation procedure involved one pre-culture in complex medium (37 g L^−1 BHI) followed by another pre-cultivation and then by the main cultivation, both in minimal medium (Kind et al., 2013. Metab. Eng. 15, 184-95.), which contained the following salts and vitamins per liter: NaCl, 0.055 g CaCl2.H2O, 0.2 g MgSO4.7H2O, 15 g (NH4)2SO4, 24.98 g K2HPO4, 7.7 g KH2PO4, 20 mg FeSO4.7 H2O, 0.5 mg biotin, 1 mg thiamine.HCl, 30 mg 3,4-dihydroxybenzoic acid and 10 mL of a 100× trace element solution (Vallino and Stephanopoulos., 1993. Biotechnol. Bioeng. 41, 633-646). […] The different medium ingredients were combined at room temperature freshly before use. The pH was kept constant at 7.0±0.2 by manual addition of 2 M NaOH. All cultures were conducted as biological triplicate.
(§2) A diode array detector was used for detection of MA (260 nm) and the aromatics (210 nm). The quantification of glucose was carried out by isocratic HPLC (Agilent 1260 Infinity Series, Waldbronn, Germany). The separation was conducted on an Aminex HPX-87H column (300×7.8 mm; Bio-Rad, Munich, Germany) at 55° C. As mobile phase, 3.5 mM H2SO4 was used at a flow rate of 0.8 mL min^−1. The refraction index was used for detection. The concentration of cell dry mass (CDM) was calculated from the measured optical density (OD660) using a correlation factor of CDM (g/L)=0.32×OD660 (Rohles et al., 2016. Microb. Cell Fact. 15, 154). The exact monitoring of the cell concentration during the intracellular metabolite sampling and the above correlation allowed to relate the obtained metabolite levels to the CDM (μmol gCDM^−1). The correlation between the cytoplasmic volume and the CDM (1.95 mL gCDM^−1) was used to express intracellular concentrations in mM (Gutmann et al., 1992. Biochim. Biophys. Acta. 1112, 115-23).

[5] = test system: Amycolatopsis sp. ATCC 39116; assay: Utilization of aromatics as sole source of carbon (growth, OD600); type: cell-based; conditions: 2 mM substrate as sole source of carbon in mineral salt medium; OD600 after 40 hours
Protocol: For genetic engineering work, E. coli strains were grown in liquid Luria-Bertani (LB) medium or on solid LB medium, which additionally contained 20 g L^−1 agar (Becton Dickinson, Heidelberg, Germany). For conjugation, A. species ATCC 39116 was grown in liquid GYM medium, containing per liter: 4 g glucose, 4 g yeast extract (Becton Dickinson), and 10 g malt extract (Becton Dickinson). For sporulation and for cloning purposes, solid GYM medium, additionally containing 20 g L^−1 agar (Becton Dickinson), was used. For the pre-culture and the main culture in growth and production studies, a mineral medium (pH 7.2) was used, which contained per liter: 4.5 g Na2HPO4*7H2O, 3.0 g (NH4)2SO4, 1.0 g KH2PO4, 200 mg NaCl, 200 mg MgSO4.7H2O, 50 mg CaCl2.2H2O, 2 mg ZnSO4.7H2O, 1.2 mg MnCl2.4H2O, 0.4 mg CoCl2.6H2O, 0.2 mg NaMoO4.2H2O, 0.2 mg CuSO4.5H2O. […] For direct MA production from pre-treated lignin, appropriate amounts of the obtained hydrolysate (see below) were added. For plasmid maintenance, kanamycin (50 μg mL^−1) or apramycin (50 μg mL^−1) were added, respectively, when needed. In addition, 5-Bromo-4-chloro-1H-indol-3-yl β-D-gluco-pyranosiduronic acid (X-Gluc) was added to selection agar plates (40 μg mL^−1) for blue white screening.
(§3) Amycolatopsis was cultivated in baffled shake flasks, filled to 10% with liquid medium. Single colonies from agar plates, incubated for 24 h at 37° C., were used as inoculum for the first pre-culture. From there, cells were harvested during the exponential growth by centrifugation (5 min, 8800 xg, and 37° C.), and used afterwards as inoculum for the main culture. All shake flask cultivations were conducted in triplicate at 37° C. and 230 rpm on an orbital shaker (Multitron, Infors AG, Bottmingen, Switzerland).
The wildtype was cultivated in minimal medium on a range of aromatics, reflecting a spectrum of potential lignin-derivable raw materials.

[6] = test system: Corynebacterium glutamicum LIMA-2; assay: Kinetics and stoichiometry of MA production from catechol, batch shake flask, LIMA-2; type: cell-based; conditions: only 10 mM catechol
Protocol: as §1, §2

[7] = test system: Amycolatopsis sp. ATCC 39116; assay: Growth of wildtype on guaiacol as sole source of carbon; type: cell-based
Protocol: as §3
The cell concentration was determined in duplicate as optical density at 600 nm (OD600). The cell dry mass (CDM) was determined gravimetrically in triplicate. In short, 20 mL culture broth was filtered (Whatman cellulose filter, Grade 3, GE-Healthcare Life Sciences, Little Chalfont, UK), washed three times, and dried to constant weight (HB43-S, Mettler-Toledo, Columbus, Ohio, UA). The correlation factor was CDM [g L^−1]=0.45×OD600.
The capability to use guaiacol was found most relevant, given the huge importance of the aromatic as the dominant building block of softwood lignin, and was therefore studied now in more detail. The wildtype was found robust and tolerated elevated levels of guaiacol. Concentrations up 25 mM were utilized (FIG. 25). […] On a quantitative basis, MA reached a level of 0.3 mM, which represented about 5% of the initially added guaiacol. […]

[8] = LIMA-1, initial 20 mM benzoate, 10 mM catechol, 5 mM phenol, glucose added
[9] = column LIMA-1, 10 mM catechol plus 2 mM benzoate as inducer

## Cc1cccc(O)c1O [3-Methyl catechol]
[1]
  Specific activity: 470 ± 9 mU mg^−1
[1]; catechol replaced by equimolar substrate
  activity relative to that found for catechol: about 70%

## Cc1ccc(O)c(O)c1 [4-Methyl catechol]
[1]
  accepted as substrate by the enzyme: accepted
  Specific activity: 380 ± 5 mU mg^−1

## O=C(O)c1ccccc1 [Benzoic acid]
[2]
  level up to which the mutant grew (highest concentrations tested): ≤ 80 mM
[3]; LIMA-1 crude extract
  CatA activity of cells cultivated on the aromatic: 490 mU mg^−1
  fold higher CatA activity versus culture only on glucose: 16 fold
[4]
  YMA/Aro, MA yield: 1.00 ± 0.02 mol mol^−1
  YX/Glc, biomass yield: 0.46 ± 0.01 g/g
  qGlc, specific glucose uptake rate: 0.5 ± 0.0 mmol/g/h
  qMA, specific MA production rate: 3.3 ± 0.1 mmol/g/h
[5]
  Growth: +++ (OD > 1)

## Oc1ccccc1O [Catechol]
[1]
  Specific activity: 640 ± 19 mU mg^−1
[1]; listed as catechol
  Specific activity: 640 mU mg^−1
[3]; read-out: KM-value for catechol, crude extract of benzoate-grown cells, Michaelis-Menten fit
  Km: 2300 nM
[4]; [8]
  YMA/Aro, MA yield: 0.99 ± 0.02 mol mol^−1
  YX/Glc, biomass yield: 0.38 ± 0.01 g/g
  qGlc, specific glucose uptake rate: 0.3 ± 0.0 mmol/g/h
  qMA, specific MA production rate: 0.2 ± 0.0 mmol/g/h
[4]; LIMA-1, initial 20 mM benzoate, 10 mM catechol, 5 mM phenol, glucose added, listed as catechol
  YMA/Aro, MA yield: 1.00±0.01 mol mol^−1
[4]; [9]
  qGlc, specific glucose uptake rate: 0.7 ± 0.0 mmol/g/h
  qMA, specific MA production rate: 5.2 ± 0.4 mmol/g/h
[5]
  Growth: ++ (1 > OD > 0.5)
[6]
  YMA/Aro, MA yield: 1.00 ± 0.01 mol mol^−1
  YX/Glc, biomass yield: 0.40 ± 0.02 g/g
  qGlc, specific glucose uptake rate: 0.4 ± 0.0 mmol/g/h
  qMA, specific MA production rate: 3.5 ± 0.1 mmol/g/h

## O=C(O)/C=C\C=C/C(=O)O [Cis,cis-muconic acid, (2Z,4Z)-2,4-Hexadienedioate]
[5]
  Growth: +++ (OD > 1)

## COc1ccccc1O [Guaiacol]
[7]; guaiacol as sole carbon source
  specific growth rate: 0.30 h⁻¹
[7]; guaiacol as sole source of carbon, 24 hours
  concentrations utilized (tolerated) up to: ≤ 25 mM
[5]
  Growth: ++ (1 > OD > 0.5)

## Oc1ccccc1 [Phenol]
[4]
  YMA/Aro, MA yield: 0.95 ± 0.09 mol mol^−1
  YX/Glc, biomass yield: 0.48 ± 0.01 g/g
  qGlc, specific glucose uptake rate: 0.6 ± 0.0 mmol/g/h
  qMA, specific MA production rate: 0.1 ± 0.0 mmol/g/h
[5]
  Growth: ++ (1 > OD > 0.5)

## Cc1ccccc1 [Toluene]
[5]
  Growth: + (0.5 > OD > 0.25)

## O=C(O)/C=C/c1ccc(O)cc1 [p-Coumaric acid]
[5]
  Growth: +++ (OD > 1)
